Assay: xn = mol fraction of the nth substance listed
Conditions: 101 kPa

C[n+]1ccn(CCCC#N)c1.O=S(=O)([O-])C(F)(F)F + CC#N
Conditions	electrical conductivity [S/m]	viscosity [mPa·s]
288.15 K, x1 = 0.2002	1.88	6.79
288.15 K, x1 = 0.4006	0.55	70.7
288.15 K, x1 = 0.6005	0.175	160
288.15 K, x1 = 0.698	0.07	340
288.15 K, x1 = 0.7996	0.053	579
288.15 K, x1 = 0.9007	0.031	874
288.15 K, x1 = 1	0.023	1182
293.15 K, x1 = 0.1002	2.87	1.51
293.15 K, x1 = 0.2002	2.08	5.95
293.15 K, x1 = 0.2994	1.19	14.1
293.15 K, x1 = 0.4006	0.651	55.5
293.15 K, x1 = 0.5	0.246	85.7
293.15 K, x1 = 0.698	0.093	255
293.15 K, x1 = 0.7996	0.079	417
293.15 K, x1 = 0.9007	0.044	625
293.15 K, x1 = 1	0.033	811
298.15 K, x1 = 0.1002	3.04	1.4
298.15 K, x1 = 0.2002	2.28	5.23
298.15 K, x1 = 0.2994	1.35	12.15
298.15 K, x1 = 0.4006	0.766	44.44
298.15 K, x1 = 0.5	0.315	68.6
298.15 K, x1 = 0.6005	0.278	92
298.15 K, x1 = 0.698	0.124	195.4
298.15 K, x1 = 0.9007	0.061	450
298.15 K, x1 = 1	0.046	581
303.15 K, x1 = 0.1002	3.22	1.3
303.15 K, x1 = 0.2002	2.49	4.65
303.15 K, x1 = 0.2994	1.51	10.55
303.15 K, x1 = 0.4006	0.896	36.24
303.15 K, x1 = 0.5	0.394	54.8
303.15 K, x1 = 0.6005	0.345	72.2
303.15 K, x1 = 0.698	0.163	149
303.15 K, x1 = 0.7996	0.151	230
308.15 K, x1 = 0.1002	3.41	1.21
308.15 K, x1 = 0.2002	2.69	4.18
308.15 K, x1 = 0.4006	1.03	29.81
308.15 K, x1 = 0.5	0.485	44.07
308.15 K, x1 = 0.6005	0.419	57.2
308.15 K, x1 = 0.698	0.213	116.3
308.15 K, x1 = 0.7996	0.193	174
308.15 K, x1 = 0.9007	0.106	245
313.15 K, x1 = 0.1002	3.57	1.13
313.15 K, x1 = 0.2994	1.88	8.05
313.15 K, x1 = 0.4006	1.17	24.79
313.15 K, x1 = 0.6005	0.5	46.5
313.15 K, x1 = 0.698	0.274	91.3
313.15 K, x1 = 0.9007	0.135	185
313.15 K, x1 = 1	0.104	231
318.15 K, x1 = 0.2002	3.08	3.41
318.15 K, x1 = 0.2994	2.08	7.12
318.15 K, x1 = 0.4006	1.32	21.09
318.15 K, x1 = 0.6005	0.593	37.8
318.15 K, x1 = 0.7996	0.288	104.7
318.15 K, x1 = 1	0.131	177.1
323.15 K, x1 = 0.2002	3.28	3.13
323.15 K, x1 = 0.2994	2.29	6.32
323.15 K, x1 = 0.4006	1.48	18.37
323.15 K, x1 = 0.5	0.781	25.17
323.15 K, x1 = 0.698	0.44	61.3
323.15 K, x1 = 0.7996	0.341	83.4
323.15 K, x1 = 0.9007	0.205	104.8
323.15 K, x1 = 1	0.161	141.4
